In paper PMC4295843, “Metabolism of Androstenone, 17β-Estradiol and Dihydrotestosterone in Primary Cultured Pig Hepatocytes and the Role of 3β-Hydroxysteroid Dehydrogenase in This Process” (PLoS ONE, 2015):
Entries after “also recorded” stand apart in the source; their conditions may differ. Read-outs that look alike come from different tables or passages of the source.

Key:
[1] = system: primary cultured pig hepatocytes; assay: Steroid metabolism in primary cultured pig hepatocytes, LC-TOF-MS of cell culture medium; details: for Peak height of the ion chromatogram of the steroid metabolite in cell culture medium, C: 48 h incubation in absence of enzyme inhibitors, 10 µM parent steroid, Mean ± SD
in vitro = details: male, Large White, pig
Protocol: Primary pig hepatocytes were isolated from Large White male pigs (3–5 days old) using procedure described by Chen et al.. The experimental protocol for using animals was approved by the Animal Ethics Committee of the China Agricultural University, Beijing, China (permission number: 2011-11-23-1). […] Approximately 5×10^6 cells were plated into 10 cm Petri dishes with 10 ml of Dulbecco modified Eagle’s medium (DMEM) containing 20% fetal bovine serum (FBS) supplemented with insulin (10 mg/L), penicillin (100 U/mL) and streptomycin (100 µg/mL). Hepatocytes were incubated for 24 h in a humidified atmosphere at 37°C with 5% of CO2.
After the incubation, the primary pig hepatocytes were washed three times with phosphate buffer saline solution (PBS) before they were treated with steroids and/or inhibitors. In steroid metabolism studies, hepatocytes were incubated in 10 ml of basal growth medium containing phenol red-free DMEM with 10% of charcoal treated FBS fortified with 10 µM (final concentration) of androstenone, 17β-estradiol or dihydrotestosterone. In the inhibition experiments, 10 µM (final concentration) of trilostane or apigenin, the specific inhibitors of 3βHSD and 17βHSD respectively, were added to hepatocytes simultaneously with androstenone, 17β-estradiol or dihydrotestosterone. Solutions of both, the inhibitors and steroids, were prepared in methanol. […] In the cytotoxicity text, the steroids were incubated with different concentrations of inhibitors (1, 10, 25 and 50 µM) for 48 h. The cell viability was analyzed using CellTiter-Glo Luminescent Cell Viability Assay (Promega, Madison, WI) reagent following manufacture’s protocol. The cell culture medium was collected at the following time points: 0, 6, 12, 18, 24, 30, 36, 42 and 48 h after adding steroids and/or inhibitors, and was stored at −80°C until metabolites analysis. Cells treated with basal growth medium were used as control. The experiments were repeated in three different days. Experiments on each of the three days were conducted in triplicate.

[2] = system: primary cultured pig hepatocytes; details: male, Large White, 10 µM
17βHSD = assay: Inhibition of steroid glucuronide metabolite formation in pig hepatocytes by the 17βHSD inhibitor; type: cell-based
Protocol: (§1) The experiments were repeated in three different days.
(§2) Extraction procedure for steroid metabolites was as follows: two mL of cell culture medium was taken in duplicate from each hepatocytes incubation and split into two samples, 1 mL per sample. One sample was treated with 0.1 mL of 30% trichloroacetic acid (TCA) to precipitate protein. The protein precipitation procedure was optimized by analyzing protein residues using HPLC at ultraviolet wavelength (240 nm). Another sample was pre-treated with β-glucuronidase prior to protein precipitation. The pre-treatment involved incubation with 2 mL of PBS buffer (pH = 5.0) in the presence of β-glucuronidase (2.08 µkat) for 16 h at 37°C. The samples were centrifuged at 17226 g for 10 min. All of the supernatants were collected and loaded onto a SPE cartridge (Bond Elut-C18, 500 mg/3 mL, Agilent, Lake Forest, CA, USA) preconditioned with 3 mL of methanol and water. The cartridges were washed with 3 mL of water and 3 mL 5% of methanol and then vacuum dried. The analytes were eluted with 9 mL of acetonitrile (ACN). The elutants were evaporated under nitrogen and reconstituted with 400 µL of 62.5% methanol. Solvents were passed through 0.22 µm filter paper (Jinteng company, Tianjin, China), and then transferred to inserts for analysis. The recoveries were determined by analyzing spiked samples in a basal medium. The recoveries for androstenone, 17β-estradiol and dihydrotestosterone were in a range of 60–95%.
(§3) Steroid metabolites were analyzed by LC-TOF-MS (QSTAR Elite, AB Sciex, ON, Canada) equipped with an electrospray ion source (TurboIonSpray) and controlled by Analyst QS 2.0 software. ESI source was run on both, a positive and negative mode. Spectrometry parameters were as follows: ion source GS1 and GS2 were 0.41 and 0.34 MPa, respectively. Curtain gas was 0.14 MPa. Collision gas was 0.04 MPa. All the gases were supplied with nitrogen (purity≥99.995%). IonSpray voltage was 5500 V (ESI+) and −4200 V (ESI–). Ion source temperature was 500°C. Declustering Potential (DP) was 60 V (ESI+) and −60 V (ESI–). The Q1 mass monitoring was conducted using a scan mode in the range from 200 to 600 m/z. Mass intensity above 100 counts was set for acquiring product ions on TOF analyzer. An information dependent acquisition (IDA) method was set to optimize data acquisition.
(§4) Chromatographic separation was conducted using HPLC coupled to mass spectrometry (1200 SL, Agilent Technologies, USA) equipped with a binary pump, vacuum solvent degasser, column oven and autosampler (Agilent Technologies, Waldbronn, Germany). The column used was Zorbax Eclipse Plus C18 (2.1×100 mm, 3.5 µm) with a guard column (2.1×12.5 mm, 5 µm) (Agilent Technologies, USA). For the ESI+ mode, the mobile phase was 0.1% formic acid in water (A) and methanol (B). For the ESI– mode, the mobile phase was 0.1% ammonium in water (A) and methanol (B). The linear gradient used was as follows: 50% to 95% solvent B at 0–5 min; 95% solvent at 9 min, 50% solvent B at 9.1 and 15 min. The flow rate was 300 µL/min, and the sample injection volume was 20 µL.

3βHSD = target: T1, 3βHSD (Sus scrofa, UniProt Q9N119); assay: Inhibition of steroid glucuronide metabolite formation in pig hepatocytes by the 3βHSD inhibitor; type: cell-based
T1 construct: endogenous in cells; host or cells: primary hepatocytes of Large White male pigs
T1 sequence (Q9N119 1-373): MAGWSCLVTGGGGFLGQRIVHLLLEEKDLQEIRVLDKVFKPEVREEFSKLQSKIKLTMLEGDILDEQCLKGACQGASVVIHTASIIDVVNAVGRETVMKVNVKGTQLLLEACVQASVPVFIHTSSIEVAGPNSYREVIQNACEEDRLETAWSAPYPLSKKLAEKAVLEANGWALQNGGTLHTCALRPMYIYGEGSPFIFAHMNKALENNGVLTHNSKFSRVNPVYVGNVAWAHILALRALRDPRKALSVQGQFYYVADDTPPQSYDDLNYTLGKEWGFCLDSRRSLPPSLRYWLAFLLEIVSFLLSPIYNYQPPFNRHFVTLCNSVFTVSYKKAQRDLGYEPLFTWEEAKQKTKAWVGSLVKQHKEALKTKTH
Protocol: as §1, §2, §3, §4

[3] = 10 µM inhibitor with 17β-estradiol
[4] = 10 µM inhibitor with dihydrotestosterone
[5] = 48 h, 10 µM apigenin with 10 µM 17β-estradiol, Mean ± SD
[6] = 48 h, 10 µM trilostane with 10 µM 17β-estradiol, Mean ± SD

| Compound | Peak height of the ion chromatogram of the steroid metabolite in cell culture medium, C [1] [cps/1000] | viability at 48 h, 1 µM (in vitro) [%] | viability at 48 h, 10 µM (in vitro) [%] | viability at 48 h, 25 µM (in vitro) [%] | viability at 48 h, 50 µM (in vitro) [%] | also measured |
| --- | --- | --- | --- | --- | --- | --- |
| 5α-androst-16-en-3β-glucuronide [Androstenone glucuronide] | 3.4±0.5 | – | – | – | – | – |
| C[C@]12CC[C@@H]3c4ccc(O)cc4CC[C@H]3[C@@H]1CC[C@@H]2O [17β-Estradiol] | – | 109 ± 4.8 | 91.6 ± 0.4 | 89.8 ± 8 | 83.6 ± 1.6 | Share of 17β-estradiol oxidized at C-17 to estrone, forming E1-G [2]: over 80%; Share of 17β-estradiol undergoing direct phase II metabolism, forming E2-G [2]: Less than 20%; Parent steroid in cell culture medium after incubation with hepatocytes ([2]; 6 h): No 17β-estradiol was found |
| C[C@]12CCC(=O)C[C@@H]1CC[C@@H]1[C@@H]2CC[C@]2(C)C=CC[C@@H]12 [Androstenone, 5α-androst-16-ene-3-one] | – | 90.6 ± 3.8 | 89 ± 7.2 | 77.2 ± 0.6 | 78.7 ± 6.8 | Metabolite identified [2]: hydroxylated to 3β-A prior to glucuronidation |
| O=c1cc(-c2ccc(O)cc2)oc2cc(O)cc(O)c12 [Apigenin, apigenin] | – | 97.7 ± 3.2 | 83.5 ± 5.9 | 64.2 ± 1.7 | 69.8 ± 0.9 | Inhibition of E2-G and E1-G formation (17βHSD; [3]): no significant inhibition; Effect on the level of androstenone metabolite (17βHSD; 10 µM inhibitor with androstenone): did not affect significantly; Effect on DHT-G level / formation (17βHSD; [4]): did not have any effect; Peak height of Estradiol 3β-glucuronide in cell culture medium (17βHSD; [5]): 2.6±0.1 cps/1000; Peak height of Estrone glucuronide in cell culture medium (17βHSD; [5]): 15.3±1.1 cps/1000; Peak height of Androstenone glucuronide in cell culture medium (17βHSD; 48 h, 10 µM apigenin with 10 µM androstenone, Mean ± SD): 3.7±0.9 cps/1000; Peak height of Dihydrotestosterone 17β-glucuronide in cell culture medium (17βHSD; 48 h, 10 µM apigenin with 10 µM dihydrotestosterone, Mean ± SD): 11.5±0.5 cps/1000 |
| C[C@]12CCC(=O)C[C@@H]1CC[C@@H]1[C@@H]2CC[C@]2(C)[C@@H](O)CC[C@@H]12 [Dihydrotestosterone] | – | 96.7 ± 0.1 | 84.3 ± 3.9 | 79.1 ± 2.2 | 76.1 ± 4.7 | Metabolite identified ([1]; 10 µM steroid, LC-TOF-MS, cell culture medium): 5α-dihydrotestosterone-17β-glucuronide; Parent steroid in cell culture medium after incubation with hepatocytes ([1]; 10 µM steroid, after 6 h of incubation): rapidly metabolized; also recorded: No dihydrotestosterone was found |
| C[C@]12CC[C@@H]3c4ccc(O[C@@H]5O[C@H](C(=O)O)[C@@H](O)[C@H](O)[C@H]5O)cc4CC[C@H]3[C@@H]1CC[C@@H]2O [Estradiol 3β-glucuronide, β-estradiol-3-glucuronide] | 3.1±0.8 | – | – | – | – | – |
| C[C@]12CC[C@@H]3c4ccc(O[C@@H]5O[C@H](C(=O)O)[C@@H](O)[C@H](O)[C@H]5O)cc4CC[C@H]3[C@@H]1CCC2=O [Estrone glucuronide, estrone-3-glucuronide] | 16.5±2.2 | – | – | – | – | – |
| C[C@]12CC[C@H]3[C@@H](CC[C@@]45O[C@@H]4C(O)=C(C#N)C[C@]35C)[C@@H]1CC[C@@H]2O [Trilostane, trilostane] | – | 91.8 ± 0.1 | 82.4 ± 2.1 | 79.1 ± 2.9 | 69.2 ± 1.8 | Inhibition of E2-G and E1-G formation (3βHSD; [3]): no significant inhibition; Effect on DHT-G formation (3βHSD; [4]): greatly inhibited; Decrease in the formation of androstenone metabolite (3βHSD; 10 µM inhibitor, cell culture medium): 70%; Reduction of DHT-G formation (3βHSD; 10 µM inhibitor, hepatocytes): ~86%; Peak height of Estradiol 3β-glucuronide in cell culture medium (3βHSD; [6]): 2.7±0.4 cps/1000; Peak height of Estrone glucuronide in cell culture medium (3βHSD; [6]): 13.5±1.7 cps/1000; Peak height of Androstenone glucuronide in cell culture medium (3βHSD; 48 h, 10 µM trilostane with 10 µM androstenone, Mean ± SD): 1.0±0.6 cps/1000; Peak height of Dihydrotestosterone 17β-glucuronide in cell culture medium (3βHSD; 48 h, 10 µM trilostane with 10 µM dihydrotestosterone, Mean ± SD): 1.6±0.2 cps/1000 |
